Data: patent US20250333397A1 (REMIX THERAPEUTICS INC., priority 2021, published 2025)
Like-named read-outs stand apart in the source and are kept apart here.

Assays:
Type in all cases: cell-based, human
[1] = system: SMN2 mRNA; experiment: RT-qPCR splicing assay panel, SMN2 canonical junction (CJ) mRNA; details: canonical junction (CJ) mRNA, RT-qPCR panel, Table 4A, read-out: SMN2, decrease in CJ mRNA levels, IC50
Procedure: (§1) Compounds described herein were used to modulate RNA transcript abundance in cells. The expression of a target mRNA was measured by detecting the formation of an exon-exon junction in the canonical transcript (CJ). A compound mediated exon-inclusion event was detected by observing an increase in formation of a new junction with an alternative exon (AJ). Real-time qPCR assays were used to detect these splicing switches and interrogate the potency of various compounds towards different target genes. A high-throughput real time quantitative PCR (RT-qPCR) assay was developed to measure these two isoforms of the mRNA (CJ and AJ) for exemplary genes, such as HTT, SMN2, and MYB, together with a control housekeeping gene, GAPDH or GUSB or PPIA, used for normalization. Briefly, the A673 or K562 cell line was treated with various compounds described herein (e.g., compounds of Formula (I), (II), (III), (IV)). After treatment, the levels of the HTT, MYB, or SMN2 mRNA targets were determined from each sample of cell lysate by cDNA synthesis followed by qPCR.
(§2) The A673 cell line was cultured in DMEM with 10% FBS. Cells were diluted with full growth media and plated in a 96-well plate (15,000 cells in 100ul media per well). The plate was incubated at 37° C. with 5% CO2 for 24 hours to allow cells to adhere. An 11-point 3-fold serial dilution of the compounds was made in DMSO then diluted in media in an intermediate plate. Compounds were transferred from the intermediate plate to the cell plate with the top dose at a final concentration of 10 uM in the well. Final DMSO concentration was kept at or below 0.25%. The cell plate was returned to the incubator at 37° C. with 5% CO2 for an additional 24 hours.
(§3) The K562 cell line was cultured in IMDM with 10% FBS. For K562, cells were diluted with full growth media and plated in either a 96-well plate (50,000 cells in 50 uL media per well) or a 384-well plate (8,000-40,000 cells in 45 uL media per well). An 11-point 3-fold serial dilution of the compounds were made in DMSO then diluted in media in an intermediate plate.
(§4) Compound was transferred from the intermediate plate to the cell plate with the top dose at a final concentration of 10 uM in the well. Final DMSO concentration was kept at or below 0.25%.
(§5) Final volume was 100 uL for 96-well plate and 50 uL for 384-well plate. The cell plate was then placed in an incubator at 37° C. with 5% CO2 for 24 hours.
(§6) The cells were then gently washed with 50 uL-100 uL cold PBS before proceeding to addition of lysis buffer. 30 uL-50 μL of room temperature lysis buffer with DNAse I (and optionally RNAsin) was added to each well. Cells were shaken/mixed thoroughly at room temperature for 5-10 minutes for lysis to take place and then 3 uL-5 μL of room temperature stop solution was added and wells were shaken/mixed again. After 2-5 minutes, the cell lysate plate was transferred to ice for RT-qPCR reaction setup. The lysates could also be frozen at −80° C. for later use.
(§7) In some cases, a direct lysis buffer was used. An appropriate volume of 3× lysis buffer (10 mM Tris, 150 mM NaCl, 1.5%-2.5% Igepal and 0.1-1 U/uL RNAsin, pH 7.4) was directly added to either K562 or A673 cells in media and mixed by pipetting 3 times. The plates were then incubated at room temperature with shaking/rocking for 20-50 minutes to allow for lysis to take place. After this time, the cell lysate plate was transferred to ice to set up for the RT-qPCR reactions. The lysates could also be frozen at −80° C. for later use.
(§8) To set up 10 uL RT-qPCR reactions, cell lysates were transferred to 384-well qPCR plates containing the master mix according to the table below. The plates were sealed, gently vortexed, and spun down before the run. The volumes were adjusted accordingly in some instances where the reaction was carried in 20 μL. The table below summarizes the components of the RT-qPCR reactions: […]

[2] = system: HTT mRNA; experiment: RT-qPCR splicing assay, HTT canonical (CJ) and alternative (AJ) junction mRNA; details: for AC50: read-out: HTT AJ (AC50, increase in AJ mRNA)
Procedure: as §1, §2, §3, §4, §5, §6, §7, §8

[3] = system: Target C mRNA; experiment: RT-qPCR splicing assay panel, Target C canonical junction (CJ) mRNA; details: Homo sapiens, canonical junction (CJ) mRNA, RT-qPCR panel, Table 4A; read-out: Target C, decrease in CJ mRNA levels, IC50
Procedure: as §1, §2, §3, §4, §5, §6, §7, §8

[4] = system: MYB mRNA; experiment: RT-qPCR splicing assay, MYB canonical (CJ) and alternative (AJ) junction mRNA; details: for AC50: read-out: MYB AJ (AC50, increase in AJ mRNA)
Procedure: as §1, §2, §3, §4, §5, §6, §7, §8

[5] = Homo sapiens, 24 h, Table 3A, A673 or K562 cells, 24 h treatment
[6] = Homo sapiens, 24 h, Table 3A, A673 or K562 cells, 24 h treatment, read-out: HTT CJ (IC50, decrease in CJ mRNA)
[7] = Homo sapiens, canonical junction (CJ) mRNA, RT-qPCR panel, Table 4A, read-out: HTT, decrease in CJ mRNA levels, IC50
[8] = Homo sapiens, 24 h, Table 3A, A673 or K562 cells, 24 h treatment, read-out: MYB CJ (IC50, decrease in CJ mRNA)
[9] = Homo sapiens, canonical junction (CJ) mRNA, RT-qPCR panel, Table 4A, read-out: MYB, decrease in CJ mRNA levels, IC50
[10] = Table 3A, A673 or K562 cells, 24 h treatment, read-out: MYB CJ (IC50, decrease in CJ mRNA)

| Compound | IC50 ([1]; Homo sapiens) | AC50 [2, 5] | IC50 [2, 6] | IC50 [2, 7] | IC50 [3] | AC50 [4, 5] | IC50 [4, 8] | IC50 [4, 9] | IC50 [1] | IC50 ([2]; Table 3A, A673 or K562 cells, 24 h treatment, read-out: HTT CJ (IC50, decrease in CJ mRNA)) | AC50 ([4]; Table 3A, A673 or K562 cells, 24 h treatment) | IC50 [4, 10] |
| --- | --- | --- | --- | --- | --- | --- | --- | --- | --- | --- | --- | --- |
| Cc1ccc(-c2ccc(-c3ccc(N4CC[C@@H](NC5CCC5)C4)nn3)c(O)c2)cn1 [Compound 293, 2-{6-[(3R)-3-(cyclobutylamino)pyrrolidin-1-yl]pyridazin-3-yl}-5-(6-methylpyridin-3-yl)phenol] | < 100 nM | 100 to 1000 nM | 100 to 1000 nM | 100 to 1000 nM | 1000 to 10000 nM | 100 to 1000 nM | 1000 to 10000 nM | 1000 to 10000 nM |  |  |  |  |
| Oc1cc(-c2cn[nH]c2)c(F)cc1-c1ccc(N2CC[C@@H](NC3CC3)C2)nn1 [Compound 106, 2-{6-[(3R)-3-(cyclopropylamino)pyrrolidin-1-yl]pyridazin-3-yl}-4-fluoro-5-(1H-pyrazol-4-yl)phenol] | < 100 nM | < 100 nM | < 100 nM | < 100 nM | 100 to 1000 nM | 100 to 1000 nM | 100 to 1000 nM | 100 to 1000 nM |  |  |  |  |
| COc1cc(-c2ccc(-c3ccc(N4CCC(NC56CC(C5)C6)C4)nn3)c(O)c2)cnn1 (centres unmarked) [Compound 335, 2-[6-(3-{bicyclo[1.1.1]pentan-1-ylamino}pyrrolidin-1-yl)pyridazin-3-yl]-5-(6-methoxypyridazin-4-yl)phenol] | 100 to 1000 nM | 100 to 1000 nM | < 100 nM | < 100 nM | 100 to 1000 nM | 1000 to 10000 nM | 100 to 1000 nM | 100 to 1000 nM |  |  |  |  |
| Cc1ncc(-c2cc(O)c(-c3ccc(N4CCC(CNC(C)(C)C)C4)nn3)cc2F)s1 (centres unmarked) [Compound 333] | 1000 to 10000 nM | > 10000 nM | 1000 to 10000 nM | 1000 to 10000 nM | > 10000 nM | > 10000 nM | > 10000 nM | > 10000 nM |  |  |  |  |
| Cc1cc(-c2ccc(-c3ccc(N4CC[C@@H](NC5CCC5)C4)nn3)c(O)c2)cnn1 [Compound 292, 2-{6-[(3R)-3-(cyclobutylamino)pyrrolidin-1-yl]pyridazin-3-yl}-5-(6-methylpyridazin-4-yl)phenol] | 1000 to 10000 nM | > 10000 nM | > 10000 nM | > 10000 nM | > 10000 nM | > 10000 nM | > 10000 nM | > 10000 nM |  |  |  |  |
| COc1cc(-c2ccc(-c3ccc(N4CC[C@@H](N(CCF)C5CCC5)C4)nn3)c(O)c2)cnn1 [Compound 313, 2-{6-[(3R)-3-[cyclobutyl(2-fluoroethyl)amino]pyrrolidin-1-yl]pyridazin-3-yl}-5-(6-methoxypyridazin-4-yl)phenol] | 100 to 1000 nM | 1000 to 10000 nM | 100 to 1000 nM | 100 to 1000 nM | > 10000 nM | 1000 to 10000 nM | > 10000 nM | > 10000 nM |  |  |  |  |
| Cn1cnc(-c2ccc(-c3ccc(N4CC[C@H](NC(C)(C)C)C4)nn3)c(O)c2)cc1=O [Compound 236, 6-(4-{6-[(3S)-3-(tert-butylamino)pyrrolidin-1-yl]pyridazin-3-yl}-3-hydroxyphenyl)-3-methylpyrimidin-4-one] |  | 100 to 1000 nM | 100 to 1000 nM |  |  | 100 to 1000 nM | 100 to 1000 nM |  |  |  |  |  |
| COc1cc(-c2ccc(-c3ccc(N4CC[C@@H](NC5(CF)CC5)C4)nn3)c(O)c2)cnn1 [Compound 242, 2-{6-[(3R)-3-{[1-(fluoromethyl)cyclopropyl]amino}pyrrolidin-1-yl]pyridazin-3-yl}-5-(6-methoxypyridazin-4-yl)phenol] |  | 100 to 1000 nM | < 100 nM |  |  | 100 to 1000 nM | 100 to 1000 nM |  |  |  |  |  |
| Cc1ncc(-c2cc(O)c(-c3ccc(N4CC[C@H](N[C@H](C)C5CC5)C4)nn3)cc2F)s1 [Compound 394] |  |  |  |  |  |  |  |  | < 100 nM | < 100 nM | < 100 nM | < 100 nM |
| COc1cc(-c2cc(O)c(-c3ccc(N4CC[C@H](N(C)C(C)(C)C)C4)nn3)cc2F)cnn1 [Compound 234, 2-{6-[(3S)-3-[tert-butyl(methyl)amino]pyrrolidin-1-yl]pyridazin-3-yl}-4-fluoro-5-(6-methoxypyridazin-4-yl)phenol] |  | < 100 nM | < 100 nM |  |  | < 100 nM | < 100 nM |  |  |  |  |  |
| COc1cc(-c2ccc(-c3ccc(N4CC[C@@H](N(C)C5CCC5)C4)nn3)c(O)c2)cnn1 [Compound 238, 2-{6-[(3R)-3-[cyclobutyl(methyl)amino]pyrrolidin-1-yl]pyridazin-3-yl}-5-(6-methoxypyridazin-4-yl)phenol] |  | 100 to 1000 nM | < 100 nM |  |  | 100 to 1000 nM | 100 to 1000 nM |  |  |  |  |  |
| COc1cc(-c2ccc(-c3ccc(N4CC[C@H](NC5(CF)CC5)C4)nn3)c(O)c2)cnn1 [Compound 241, 2-{6-[(3S)-3-{[1-(fluoromethyl)cyclopropyl]amino}pyrrolidin-1-yl]pyridazin-3-yl}-5-(6-methoxypyridazin-4-yl)phenol] |  | 100 to 1000 nM | < 100 nM |  |  | 100 to 1000 nM | 100 to 1000 nM |  |  |  |  |  |
| COc1cc(-c2ccc(-c3ccc(N4CC[C@H](N(C)C5CCC5)C4)nn3)c(O)c2)cnn1 [Compound 239] |  | < 100 nM | < 100 nM |  |  | 100 to 1000 nM | 100 to 1000 nM |  |  |  |  |  |
| Cc1nnc(-c2ccc(-c3ccc(N4CC[C@@H](NCC5CC5)C4)nn3)c(O)c2)s1 [Compound 416] |  |  |  |  |  |  |  |  | < 100 nM |  |  | 100 to 1000 nM |
| Cn1cnc(-c2ccc(-c3ccc(N4CC[C@@H](NC(C)(C)C)C4)nn3)c(O)c2)cc1=O [Compound 237, 6-(4-{6-[(3R)-3-(tert-butylamino)pyrrolidin-1-yl]pyridazin-3-yl}-3-hydroxyphenyl)-3-methylpyrimidin-4-one] |  | < 100 nM | < 100 nM |  |  | 100 to 1000 nM | 100 to 1000 nM |  |  |  |  |  |
| COc1cc(-c2cc(O)c(-c3ccc(N4CC[C@@H](N(C)C(C)(C)C)C4)nn3)cc2F)cnn1 [Compound 235, 2-{6-[(3R)-3-[tert-butyl(methyl)amino]pyrrolidin-1-yl]pyridazin-3-yl}-4-fluoro-5-(6-methoxypyridazin-4-yl)phenol] |  | < 100 nM | < 100 nM |  |  | 100 to 1000 nM | 100 to 1000 nM |  |  |  |  |  |
